Laboratory results from patent US12077503B2, “Substituted cyclic amides and their use as herbicides” (FMC CORPORATION, priority 2015, dated 2024).

What was measured:
Assay type in all cases: in vivo
[1] = test system: barnyardgrass (Echinochloa crus-galli); assay: Test G Pre-Emergence Protocol; conditions: Echinochloa crus-galli, pre-emergence, 312 h, evaluated after 13 days; for pest or weed control at 15.625 g/ha: 15.625 g ai/ha, read-out: Barnyard grass damage rating (100=total damage to plant; 0=no damage to plant); for pest or weed control at 62.5 g/ha: 62.5 g ai/ha, 100=total damage to plant, 0=no damage to plant, read-out: plant damage rating, Barnyardgrass; for pest or weed control at 250 g/ha: 250 g ai/ha, read-out: Barnyardgrass damage rating (100=total damage to plant; 0=no damage to plant)
In short: (§1)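 Test compound in 0.5% Tween 20 acetone/water (50:50) was applied at three rates (15.625, 62.5, 250 g/ha) to soil sown one day earlier. After 13 days plants were scored for injury, where 0 means unaffected and 100 means completely damaged.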

[2] = test system: ivy-leaved morning glory (Ipomoea hederacea); assay: Test G Pre-Emergence Protocol; conditions: Ipomoea, pre-emergence, 312 h, evaluated after 13 days; for pest or weed control at 15.625 g/ha: 15.625 g ai/ha, read-out: Morning-glory, Ivy-leaved damage rating (100=total damage to plant; 0=no damage to plant); for pest or weed control at 62.5 g/ha: 62.5 g ai/ha, 100=total damage to plant, 0=no damage to plant, read-out: plant damage rating, Morningglory, Ivy-leaved; for pest or weed control at 250 g/ha: 250 g ai/ha, read-out: Morningglory, Ivy-leaved damage rating (100=total damage to plant; 0=no damage to plant)
In short: as §1

[3] = test system: redroot pigweed (Amaranthus retroflexus); assay: Test G Pre-Emergence Protocol; conditions: Amaranthus retroflexus, pre-emergence, 312 h, evaluated after 13 days; for pest or weed control at 15.625 g/ha: 15.625 g ai/ha; for pest or weed control at 15.625 g/ha / pest or weed control at 250 g/ha: read-out: Pigweed, Redroot damage rating (100=total damage to plant; 0=no damage to plant); for pest or weed control at 62.5 g/ha: 62.5 g ai/ha, 100=total damage to plant, 0=no damage to plant, read-out: plant damage rating, Pigweed, Redroot; for pest or weed control at 250 g/ha: 250 g ai/ha
In short: as §1

corn (Zea mays) [4] = assay: Test G Pre-Emergence Protocol; conditions: Zea mays, pre-emergence, 312 h, evaluated after 13 days; for plant injury at 15.625 g/ha: 15.625 g ai/ha; for plant injury at 15.625 g/ha / plant injury at 250 g/ha: read-out: Corn damage rating (100=total damage to plant; 0=no damage to plant); for plant injury at 62.5 g/ha: 62.5 g ai/ha, 100=total damage to plant, 0=no damage to plant, read-out: plant damage rating, Corn; for plant injury at 250 g/ha: 250 g ai/ha
In short: as §1

[5] = test system: giant foxtail (Setaria faberi); assay: Test G Pre-Emergence Protocol; conditions: Setaria faberi, pre-emergence, 312 h, evaluated after 13 days; for pest or weed control at 15.625 g/ha: 15.625 g ai/ha; for pest or weed control at 15.625 g/ha / pest or weed control at 250 g/ha: read-out: Foxtail, Giant damage rating (100=total damage to plant; 0=no damage to plant); for pest or weed control at 62.5 g/ha: 62.5 g ai/ha, 100=total damage to plant, 0=no damage to plant, read-out: plant damage rating, Foxtail, Giant; for pest or weed control at 250 g/ha: 250 g ai/ha
In short: as §1

[6] = test system: velvetleaf (Abutilon theophrasti); assay: Test G Pre-Emergence Protocol; conditions: Abutilon theophrasti, pre-emergence, 312 h, evaluated after 13 days; for pest or weed control at 15.625 g/ha: 15.625 g ai/ha; for pest or weed control at 15.625 g/ha / pest or weed control at 250 g/ha: read-out: Velvetleaf damage rating (100=total damage to plant; 0=no damage to plant); for pest or weed control at 62.5 g/ha: 62.5 g ai/ha, 100=total damage to plant, 0=no damage to plant, read-out: plant damage rating, Velvetleaf; for pest or weed control at 250 g/ha: 250 g ai/ha
In short: as §1

[7] = test system: barnyardgrass (Echinochloa crus-galli); assay: Test G Post-Emergence Protocol; conditions: Echinochloa crus-galli, post-emergence, 312 h; for pest or weed control at 15.625 g/ha: 15.625 g ai/ha, evaluated after 13 days (100=total damage to plant; 0=no damage to plant), read-out: Barnyardgrass damage rating; for pest or weed control at 62.5 g/ha: 62.5 g ai/ha, read-out: Barnyardgrass damage rating (100=total damage to plant; 0=no damage to plant); for pest or weed control at 62.5 g/ha / pest or weed control at 250 g/ha: evaluated after 13 days; for pest or weed control at 250 g/ha: 250 g ai/ha, read-out: damage to plant, Barnyardgrass (100=total damage to plant; 0=no damage to plant)
In short: (§2)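 Post-emergence herbicidal damage, scored visually 0–100 at 13 days. Application at 15.625, 62.5 or 250 g/ha onto 8-day-old plants grown under glasshouse control.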

[8] = test system: ivy-leaved morning glory (Ipomoea hederacea); assay: Test G Post-Emergence Protocol; conditions: Ipomoea, post-emergence, 312 h; for pest or weed control at 15.625 g/ha: 15.625 g ai/ha, evaluated after 13 days (100=total damage to plant; 0=no damage to plant), read-out: Morningglory, Ivy-leaved damage rating; for pest or weed control at 62.5 g/ha: 62.5 g ai/ha, read-out: Morningglory, Ivy-leaved damage rating (100=total damage to plant; 0=no damage to plant); for pest or weed control at 62.5 g/ha / pest or weed control at 250 g/ha: evaluated after 13 days; for pest or weed control at 250 g/ha: 250 g ai/ha, read-out: damage to plant, Morningglory, Ivy-leaved (100=total damage to plant; 0=no damage to plant)
In short: as §2

[9] = test system: redroot pigweed (Amaranthus retroflexus); assay: Test G Post-Emergence Protocol; conditions: Amaranthus retroflexus, post-emergence, 312 h; for pest or weed control at 15.625 g/ha: 15.625 g ai/ha, evaluated after 13 days (100=total damage to plant; 0=no damage to plant), read-out: Pigweed, Redroot damage rating; for pest or weed control at 62.5 g/ha: 62.5 g ai/ha, read-out: Pigweed, Redroot damage rating (100=total damage to plant; 0=no damage to plant); for pest or weed control at 62.5 g/ha / pest or weed control at 250 g/ha: evaluated after 13 days; for pest or weed control at 250 g/ha: 250 g ai/ha, read-out: damage to plant, Pigweed, Redroot (100=total damage to plant; 0=no damage to plant)
In short: as §2

corn (Zea mays) [10] = assay: Test G Post-Emergence Protocol; conditions: Zea mays, post-emergence, 312 h; for plant injury at 15.625 g/ha: 15.625 g ai/ha, evaluated after 13 days (100=total damage to plant; 0=no damage to plant), read-out: Corn damage rating; for plant injury at 62.5 g/ha: 62.5 g ai/ha, read-out: Corn damage rating (100=total damage to plant; 0=no damage to plant); for plant injury at 62.5 g/ha / plant injury at 250 g/ha: evaluated after 13 days; for plant injury at 250 g/ha: 250 g ai/ha, read-out: damage to plant, Corn (100=total damage to plant; 0=no damage to plant)
In short: as §2

[11] = test system: giant foxtail (Setaria faberi); assay: Test G Post-Emergence Protocol; conditions: Setaria faberi, post-emergence, 312 h; for pest or weed control at 15.625 g/ha: 15.625 g ai/ha, evaluated after 13 days (100=total damage to plant; 0=no damage to plant), read-out: Foxtail, Giant damage rating; for pest or weed control at 62.5 g/ha: 62.5 g ai/ha, read-out: Foxtail, Giant damage rating (100=total damage to plant; 0=no damage to plant); for pest or weed control at 62.5 g/ha / pest or weed control at 250 g/ha: evaluated after 13 days; for pest or weed control at 250 g/ha: 250 g ai/ha, read-out: damage to plant, Foxtail, Giant (100=total damage to plant; 0=no damage to plant)
In short: as §2

[12] = test system: velvetleaf (Abutilon theophrasti); assay: Test G Post-Emergence Protocol; conditions: Abutilon theophrasti, post-emergence, 312 h; for pest or weed control at 15.625 g/ha: 15.625 g ai/ha, evaluated after 13 days (100=total damage to plant; 0=no damage to plant), read-out: Velvetleaf damage rating; for pest or weed control at 62.5 g/ha: 62.5 g ai/ha, read-out: Velvetleaf damage rating (100=total damage to plant; 0=no damage to plant); for pest or weed control at 62.5 g/ha / pest or weed control at 250 g/ha: evaluated after 13 days; for pest or weed control at 250 g/ha: 250 g ai/ha, read-out: damage to plant, Velvetleaf (100=total damage to plant; 0=no damage to plant)
In short: as §2

SMILES	pest or weed control at 15.625 g/ha [1] [%]	pest or weed control at 62.5 g/ha [1] [%]	pest or weed control at 250 g/ha [1] [%]	pest or weed control at 15.625 g/ha [2] [%]	pest or weed control at 62.5 g/ha [2] [%]	pest or weed control at 250 g/ha [2] [%]	pest or weed control at 15.625 g/ha [3] [%]	pest or weed control at 62.5 g/ha [3] [%]	pest or weed control at 250 g/ha [3] [%]	plant injury at 15.625 g/ha (corn (Zea mays) [4]) [%]	plant injury at 62.5 g/ha (corn (Zea mays) [4]) [%]	plant injury at 250 g/ha (corn (Zea mays) [4]) [%]	pest or weed control at 15.625 g/ha [5] [%]	pest or weed control at 62.5 g/ha [5] [%]	pest or weed control at 250 g/ha [5] [%]	pest or weed control at 15.625 g/ha [6] [%]	pest or weed control at 62.5 g/ha [6] [%]	pest or weed control at 250 g/ha [6] [%]	pest or weed control at 15.625 g/ha [7] [%]	pest or weed control at 62.5 g/ha [7] [%]	other results
CN1C[C@@H](c2ccc(C(F)(F)F)cc2)[C@H](C(=O)Nc2cccc3c2CCC3)C1=O (racemic) [Compound 1624]	0	0	80	0	0	0	0	0	20	0	0	0	20	60	80	0	0	10	0	20	pest or weed control at 250 g/ha [7]: 70%; pest or weed control at 15.625 g/ha [8]: 10%; pest or weed control at 62.5 g/ha [8]: 20%; pest or weed control at 250 g/ha [8]: 20%; pest or weed control at 15.625 g/ha [9]: 0%; pest or weed control at 62.5 g/ha [9]: 30%; pest or weed control at 250 g/ha [9]: 20%; plant injury at 15.625 g/ha (corn (Zea mays) [10]): 0%; plant injury at 62.5 g/ha (corn (Zea mays) [10]): 10%; plant injury at 250 g/ha (corn (Zea mays) [10]): 10%; pest or weed control at 15.625 g/ha [11]: 10%; pest or weed control at 62.5 g/ha [11]: 80%; pest or weed control at 250 g/ha [11]: 80%; pest or weed control at 15.625 g/ha [12]: 0%; pest or weed control at 62.5 g/ha [12]: 10%; pest or weed control at 250 g/ha [12]: 10%
Cc1cc(NC(=O)[C@@H]2C(=O)N(C)C[C@H]2c2ccc(C(F)(F)F)cc2)[nH]n1 (racemic) [Compound 1626]	0	0	0	0	0	0	0	0	0	0	0	0	0	0	0	0	0	0	0	0	pest or weed control at 250 g/ha [7]: 0%; pest or weed control at 15.625 g/ha [8]: 0%; pest or weed control at 62.5 g/ha [8]: 0%; pest or weed control at 250 g/ha [8]: 0%; pest or weed control at 15.625 g/ha [9]: 0%; pest or weed control at 62.5 g/ha [9]: 0%; pest or weed control at 250 g/ha [9]: 0%; plant injury at 15.625 g/ha (corn (Zea mays) [10]): 0%; plant injury at 62.5 g/ha (corn (Zea mays) [10]): 0%; plant injury at 250 g/ha (corn (Zea mays) [10]): 0%; pest or weed control at 15.625 g/ha [11]: 0%; pest or weed control at 62.5 g/ha [11]: 0%; pest or weed control at 250 g/ha [11]: 0%; pest or weed control at 15.625 g/ha [12]: 0%; pest or weed control at 62.5 g/ha [12]: 0%; pest or weed control at 250 g/ha [12]: 0%
